Experimental data taken from patent EP0173664A2, “Biologically active benzimidazole compounds and process for their preparation” (priority 1984, dated 1986).

The compounds below were run on isolated rabbit gastric glands (assay: Inhibiting effect in vitro on acid secretion in isolated rabbit gastric glands (14C-aminopyrine accumulation, histamine-stimulated)). Conditions: Oryctolagus cuniculus, 1 h; negative logarithm of concentration (in M) giving 50% inhibition of aminopyrine accumulation; glands incubated 60 min with 5x10^-5M histamine; read-out: Biological effect in glands pIC50 (converted).
Format: cell-based
Description: Isolated rabbit gastric glands were prepared as described by Berglindh et al., Acta physiol. scand. 1976. 96. 150-159. This method involves vascular perfusion of the rabbit stomach via the gastric arteries, scraping and scissor mincing of the separated gastric mucosa and collagenase (0.1%, Type I, Sigma Chemicals, St. Louis, MO. USA) digestion at 37°C for 60-90 min. The glands are then harvested and filtered through nylon cloth to remove coarse fragments. The glands are thereafter incubated at 37°C in a medium containing NaCl 132.4 mM, KC1 5.4 mM, […], NaH2P04 1.0 mM, MgS04 1.2 mM, CaCl2 1.0 mM, glucose 10 mM, and 1 mg/ml rabbit albumine, pH 7.4.
The acid secretion in the isolated gland preparation was recorded by measuring the uptake of ^14C-labelled aminopyrine into the glands as described by Berglindh et al., Acta physiol. scand. 1976. 97. 401-414. Accumulation of aminopyrine in the glands indicates gastric acid secretion within the glands. The standard medium contained 10^-6M ^14C-aminopyrine (Amersham, Great Britain). After the incubation period, the glands were centrifuged, the supernatant was removed and the glands dried, weighed and dissolved in Soluene -350 (Packard, IU. USA). Samples of the supernatant and glands were separately counted in a scintillation counter. The accumulation of ^14 C-labelled aminopyrine in the glands was calculated as detailed by Berglindh et al., Acta physiol. scand. 1976. 97. 403.
Glands were incubated for 60 min. in the presence of 5x10^-5M histamine and the test compound to be studied. The free base of the test compound was dissolved in methanol. The final concentration of methanol was 1% in the incubation medium, having no influence on the aminopyrine accumulation ratio. For each test compound a complete dose-response curve was generated by testing doses in duplicate in the concentration range 10^-7M to 10-^4M.

Going from CCc1cnc(C[S+]([O-])c2nc3cc(C)c(C)cc3[nH]2)cc1Oc1ccccc1 (centres unmarked) [Example 1, 5,6-dimethyl-2-[[(4-phenoxy-5--ethyl-2-pyridinyl)methyl]sulfinyl]-1H-benzimidazole] to CCc1cnc(C[S+]([O-])c2nc3cc(OC)ccc3[nH]2)cc1Oc1ccccc1 (centres unmarked) [Example 6], the IC50 falls from 1 µM to 0.316 µM (3.2-fold).

Going from COc1ccc2[nH]c([S+]([O-])Cc3cc(Oc4ccc(C)cc4)ccn3)nc2c1 (centres unmarked) [Example 3, 5-methoxy-2-[[[4-(4-methylphenoxy)--2-pyridinyl]methyl]sulfinyl]-1H-benzimidazole] to COc1ccc2[nH]c([S+]([O-])Cc3cc(Oc4ccccc4)ccn3)nc2c1 (centres unmarked) [Example 10], the IC50 rises from 0.794 µM to 1.26 µM (1.6-fold).

Compared with COc1ccc2[nH]c([S+]([O-])Cc3cc(-c4ccccc4)ccn3)nc2c1 (centres unmarked) [Example 8], Cc1cc2nc([S+]([O-])Cc3cc(-c4ccccc4)ccn3)[nH]c2cc1C (centres unmarked) [Example 24] is 3.2-fold higher in IC50: 2.51 µM for the first, 7.94 µM for the second.

Compared with Cc1cc2nc([S+]([O-])Cc3cc(Oc4ccccc4)ccn3)[nH]c2cc1C (centres unmarked) [Example 12], COc1ccc2[nH]c([S+]([O-])Cc3cc(OCc4ccccc4)c(C)cn3)nc2c1 (centres unmarked) [Example 22] is 4-fold lower in IC50: 0.316 µM for the first, 0.0794 µM for the second.

COc1ccc2[nH]c([S+]([O-])Cc3nccc(Oc4ccc(C)cc4)c3C)nc2c1 (centres unmarked) [Example 16] and COc1ccc2[nH]c([S+]([O-])Cc3cc(Oc4ccc(C)cc4)c(C)cn3)nc2c1 (centres unmarked) [Example 18] are the same in IC50: 0.631 µM for the first, 0.631 µM for the second.

CCc1cnc(C[S+]([O-])c2nc3cc(OC)ccc3[nH]2)cc1OCc1ccccc1 (centres unmarked) [Example 26] was tested, and the IC50 was 0.794 µM.
